The source of these data is ChEMBL document CHEMBL1201862, “PubChem BioAssay data set” (2004).

The term IC50 denotes the point on the concentration scale where inhibition reaches its midpoint. A word on the EC50: it is the concentration at which the effect is half-maximal. In general, AC50 refers to the concentration giving half of the maximal activity seen. As usually defined, the CC50 is the concentration at which the toxic effect on the cells reaches its halfway point.

For assay [1], the target named is T1, Carboxy-terminal domain RNA polymerase II polypeptide A small phosphatase 1 (Homo sapiens, UniProt Q9GZU7).
T1 sequence (Q9GZU7 whole entry): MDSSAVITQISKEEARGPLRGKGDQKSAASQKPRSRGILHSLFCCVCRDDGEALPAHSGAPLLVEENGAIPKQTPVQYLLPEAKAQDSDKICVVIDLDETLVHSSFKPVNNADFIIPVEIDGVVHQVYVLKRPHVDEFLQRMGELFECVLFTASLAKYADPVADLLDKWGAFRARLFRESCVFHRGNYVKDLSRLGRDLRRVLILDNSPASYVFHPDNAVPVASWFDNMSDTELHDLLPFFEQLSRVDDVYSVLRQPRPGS
The assay is described as follows: CTDSP1 inhibitors, concentration-response, biochemical, absorbance readout, ultra-high-throughput screen actives (AID 540297). The class given is functional.

For assay [2], the target named is Glucose-6-phosphate 1-dehydrogenase (Homo sapiens, UniProt P11413). Briefly: inhibition of Homo sapiens G6PD, dose series – biochemical, fluorescence, selectivity assay for P. falciparum G6PD inhibitor project, dose response (AID 504792). The class given is functional.
A short description of assay [3]: NIH-3T3 fibroblast cytotoxicity, dose response, cytotoxicity control, cell-based, fluorescence, Alamar Blue, secondary assay (AID 2327).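 Also: NIH-3T3 mouse fibroblasts cultured with fluconazole at 8 µg/mL.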 The class given is functional. For orientation: Resazurin is reduced to fluorescent resorufin, in cell work by metabolically active cells.
Assay [4] is described as follows: fluconazole-exposed Candida albicans growth modulators – fluorescence, retest, confirmation (AID 2467). The class given is functional, cell-based.
Assay [5] concerns the target FAD-linked sulfhydryl oxidase ALR (Homo sapiens, UniProt P55789). The assay is described as follows: ALR-catalysed DTT oxidation blockers – biochemical, H2O2 detection, luminescence, cherry-pick, dose response (AID 493248).
Assay [6] in a line: cells. The format is functional, cell-based.
Assay [7] in a line: cells. The class given is functional, cell-based. This is another data set of the same source.
In assay [8] the target is T2, Calpain-2 catalytic subunit (Sus scrofa, UniProt P43367).
T2 sequence (P43367 whole entry): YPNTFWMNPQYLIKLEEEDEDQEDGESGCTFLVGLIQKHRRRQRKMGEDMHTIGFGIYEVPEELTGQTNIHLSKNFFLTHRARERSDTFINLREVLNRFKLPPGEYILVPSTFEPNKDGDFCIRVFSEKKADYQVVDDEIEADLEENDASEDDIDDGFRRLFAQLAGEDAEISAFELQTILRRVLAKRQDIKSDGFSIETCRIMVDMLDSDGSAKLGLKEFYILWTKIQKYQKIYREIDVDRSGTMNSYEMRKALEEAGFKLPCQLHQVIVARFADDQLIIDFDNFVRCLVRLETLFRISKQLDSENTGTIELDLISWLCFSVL
Briefly: m-calpain protease blockers, concentration series – biochemical, fluorogenic peptide substrate, dose response (AID 1420). The class given is functional.

In assay [9] the target is Cytochrome P450 2D6 (Homo sapiens, UniProt P10635).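 Also: CYP2D6 member of a cytochrome P450 panel assay.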
A short description of assay [10]: viability of uninfected HEp-2 cells – cell-based, HTS, cytotoxicity control for RSV inhibitor project, dose response (AID 2410). The class given is functional. The note with it: human respiratory syncytial virus.

Structures are written as SMILES. Calls of active or inactive are those of the source.

Sequence of Glucose-6-phosphate 1-dehydrogenase (P11413 whole entry): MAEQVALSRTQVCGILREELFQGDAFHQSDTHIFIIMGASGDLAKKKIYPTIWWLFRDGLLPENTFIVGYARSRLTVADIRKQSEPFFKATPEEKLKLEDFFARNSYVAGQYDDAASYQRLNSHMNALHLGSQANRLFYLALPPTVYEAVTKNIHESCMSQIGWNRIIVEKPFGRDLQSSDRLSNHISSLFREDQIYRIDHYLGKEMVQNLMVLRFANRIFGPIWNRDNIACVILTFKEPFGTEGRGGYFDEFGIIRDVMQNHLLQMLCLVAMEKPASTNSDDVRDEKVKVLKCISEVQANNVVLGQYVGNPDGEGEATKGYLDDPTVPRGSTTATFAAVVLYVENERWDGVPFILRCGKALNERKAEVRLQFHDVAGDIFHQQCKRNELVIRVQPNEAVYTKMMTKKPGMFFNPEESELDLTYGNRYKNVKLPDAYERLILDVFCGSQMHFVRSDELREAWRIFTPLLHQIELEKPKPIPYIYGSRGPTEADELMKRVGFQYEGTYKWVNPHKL
Sequence of FAD-linked sulfhydryl oxidase ALR (P55789 whole entry): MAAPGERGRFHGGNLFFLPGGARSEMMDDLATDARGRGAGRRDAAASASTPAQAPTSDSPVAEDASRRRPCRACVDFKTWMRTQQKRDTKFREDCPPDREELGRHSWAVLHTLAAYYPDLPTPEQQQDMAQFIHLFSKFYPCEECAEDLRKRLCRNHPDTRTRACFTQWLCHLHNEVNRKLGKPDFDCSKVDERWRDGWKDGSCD
Sequence of Cytochrome P450 2D6 (P10635 whole entry): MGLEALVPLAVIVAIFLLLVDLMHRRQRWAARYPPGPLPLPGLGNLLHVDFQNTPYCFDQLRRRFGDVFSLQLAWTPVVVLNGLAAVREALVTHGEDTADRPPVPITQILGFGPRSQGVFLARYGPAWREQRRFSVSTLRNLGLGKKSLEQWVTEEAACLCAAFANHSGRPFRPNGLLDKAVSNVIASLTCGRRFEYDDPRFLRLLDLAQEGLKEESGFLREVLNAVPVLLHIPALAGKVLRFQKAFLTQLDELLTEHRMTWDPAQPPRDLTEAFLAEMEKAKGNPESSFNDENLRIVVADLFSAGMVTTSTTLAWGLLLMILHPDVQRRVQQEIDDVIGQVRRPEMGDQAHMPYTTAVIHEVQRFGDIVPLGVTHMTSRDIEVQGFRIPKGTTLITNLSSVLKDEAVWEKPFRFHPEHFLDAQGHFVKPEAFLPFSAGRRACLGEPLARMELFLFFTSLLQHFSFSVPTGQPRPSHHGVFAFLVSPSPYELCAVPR

As to `Cc1oc2c(C)c3oc(=O)c(CC(=O)N[C@@H](CCCNC(N)=O)C(=O)O)c(C)c3cc2c1C`, in assay [1], the IC50 was 9.59 µM (active).

As to `CCn1c(N)c(C(=O)NC)sc1=S`, the IC50 in [2] is > 80 µM (inactive).

Regarding `CCn1c(=O)c(C(=O)NCc2cccnc2)c(O)c2ccccc21`, the EC50 in [3] was > 150 µM (inactive); in assay [4], > 38 µM (not active).

In the case of `O=C(CNC(=O)c1ccccc1)NCC(=O)OCC(=O)c1ccc([N+](=O)[O-])cc1`, the IC50 in assay [2] was > 80 µM (inactive).

For the compound `COc1ccc(NC(=O)NC(C)c2ccccc2)cc1` (stereo not drawn), the EC50 in [3] was 73.5 µM (active); in assay [4], > 38 µM (not active).

On to `CCCc1cc(C(=O)Nc2sc3c(c2C#N)CCC3)no1`, for which the EC50 in assay [3] was > 150 µM (inactive); in assay [4], 1.02 µM (active).

For `COc1ccc2c(c1OC)C(=O)N1N=C(c3ccc(O)cc3)CC21` (stereo not drawn), the EC50 in [3] was > 150 µM (inactive). The AC50 in assay [5] is 1.11 µM (active).

For the compound `C[N+]1(CC(=O)OCCCc2ccccc2)CCCC1`, the IC50 in assay [1] is 6.36 µM (active).

With `CCc1ccc(NC(=O)C[S+]([O-])CC(=O)Nc2ccc(F)cc2F)cc1` (stereo not drawn), in [1], the IC50 was 11.2 µM (active).

`CCC(C)c1ccccc1OCCn1ccnc1` (stereo not drawn): in [2], the IC50 is > 80 µM (inactive).

For the compound `Cc1cc(=O)oc2cc(OCC(=O)N3c4ccccc4NC(=O)C3(C)C)ccc12`, the IC50 in [1] was 8.21 µM (active).

With `Cc1cc(C(=O)O)oc(=O)c1`, the EC50 in [6] was > 350 µM (not active); in [7], 58.9 µM (active).

Take `CCCCn1c(N)c(-c2nc3ccccc3o2)c2c([N+](=O)[O-])nn(C)c(=O)c21`: the IC50 in assay [1] was 4.75 µM (active).

For the compound `Cc1ccc(CSc2ccc3nnc(-c4cccnc4)n3n2)cc1`, the IC50 in [8] is 5.64 µM (active).

As for `COc1ccc(CNC(=O)C2CCN(S(=O)(=O)c3ccc(-c4nn[nH]n4)cc3)CC2)cc1`, the half-inhibitory concentration (IC50) in assay [8] is recorded as 14.9 µM (not active).

For the compound `O=C(Nc1ccccc1N1CCOCC1)c1cc(F)cc(F)c1`, the EC50 is > 160 µM (inactive) in assay [3] and 1.64 µM (active) in [4].

Consider `COc1cccc(C2=CC(c3ccccc3)n3nnnc3N2)c1` (stereo not drawn), for which the AC50 in assay [9] is 31.6 µM (inconclusive). The IC50 in assay [8] is 2.32 µM (not active).

For `COc1ccc2c(c1)-c1nc(NC(=O)c3ccco3)sc1CC2`, in assay [10], the CC50 was 18.4 µM (active). The EC50 was > 350 µM (not active) in assay [6] and 23 µM (active) in assay [7].

For the compound `CC(=O)Nc1ccc(S(=O)(=O)[N-]C2=C([n+]3ccn(-c4ccccn4)c3)C(=O)c3ccccc3C2=O)cc1`, the EC50 in [6] and in assay [7] was > 350 µM (not active) each time.

With `CC(C)NC(=O)C1CCCN(S(C)(=O)=O)C1` (stereo not drawn), in assay [8], the IC50 is recorded as 7.4 µM (not active).

For the compound `Cc1ccc(OCC(=O)NNC(=O)C(C)Sc2ncnc3sc(C)c(C)c23)cc1` (stereo not drawn), the IC50 in assay [8] is 2.51 µM (not active).

Turning to `C=C(C)CNC(=S)N/N=C/c1c(F)cccc1F`, the IC50 in [8] was 20.3 µM (not active).

With `COc1cccc(-c2c(C(=O)N/N=C/c3ccc(C)o3)nnn2-c2nonc2N)c1`, the IC50 in [2] was > 80 µM (inactive).
